# Assay results reported in the CombiSolv-Exp solvation set (Vermeire and Green 2021).
# Test: solvent given as SMILES
smiles,measurement,setting,value
CCOCC,"solvation free energy, 298 K",in C1CCOC1,-3.51 kcal/mol
same,"solvation free energy, 298 K",in C=CCCCCCCCCCCCCCC,-2.74 kcal/mol
same,"solvation free energy, 298 K",in CC(=O)N(C)C,-2.81 kcal/mol
same,"solvation free energy, 298 K",in CC(C)=O,-3.25 kcal/mol
same,"solvation free energy, 298 K",in CCCCCCCC,-3.05 kcal/mol
same,"solvation free energy, 298 K",in CCCCCCCCCCCCCCCC,-2.79 kcal/mol
same,"solvation free energy, 298 K",in CCCCCCCCCCO,-2.93 kcal/mol
same,"solvation free energy, 298 K",in CCCCCCCCO,-2.99 kcal/mol
same,"solvation free energy, 298 K",in CCCCCO,-3.12 kcal/mol
same,"solvation free energy, 298 K",in CCCCCl,-3.4 kcal/mol
same,"solvation free energy, 298 K",in CCCCN(C=O)CCCC,-2.88 kcal/mol
same,"solvation free energy, 298 K",in CCCCO,-3.1 kcal/mol
same,"solvation free energy, 298 K",in CCCCOCCCC,-3.23 kcal/mol
same,"solvation free energy, 298 K",in CCN1CCCC1=O,-2.77 kcal/mol
same,"solvation free energy, 298 K",in CCN(CC)C(C)=O,-2.95 kcal/mol
same,"solvation free energy, 298 K",in CCNC(C)=O,-2.82 kcal/mol
same,"solvation free energy, 298 K",in CCNC=O,-2.78 kcal/mol
same,"solvation free energy, 298 K",in CCO,-3.26 kcal/mol
same,"solvation free energy, 298 K",in CCOC(C)(C)C,-3.23 kcal/mol
same,"solvation free energy, 298 K",in CN1CCCC1=O,-2.77 kcal/mol
same,"solvation free energy, 298 K",in CN1CCCCC1=O,-2.77 kcal/mol
same,"solvation free energy, 298 K",in CN(C)C=O,-2.81 kcal/mol
same,"solvation free energy, 298 K",in CNC(C)=O,-2.77 kcal/mol
same,"solvation free energy, 298 K",in CNC=O,-2.66 kcal/mol
same,"solvation free energy, 298 K",in CO,-3.26 kcal/mol
same,"solvation free energy, 298 K",in CS(C)=O,-2.2 kcal/mol
same,"solvation free energy, 298 K",in Cc1cccc(C)c1,-3.29 kcal/mol
same,"solvation free energy, 298 K",in ClC(Cl)(Cl)Cl,-3.52 kcal/mol
same,"solvation free energy, 298 K",in ClCCCl,-3.44 kcal/mol
same,"solvation free energy, 298 K",in ClCCl,-3.92 kcal/mol
same,"solvation free energy, 298 K",in NC=O,-1.93 kcal/mol
same,"solvation free energy, 298 K",in O,-1.74 kcal/mol
same,"solvation free energy, 298 K",in [2H]O[2H],-1.96 kcal/mol
CC(O)CC(C)(C)C (stereo not given),"solvation free energy, 298 K",in CCCCCCCC,-5.41 kcal/mol
same,"solvation free energy, 298 K",in CCCCCCCCCC,-5.33 kcal/mol
Cc1ccccc1C(C)C,"solvation free energy, 298 K",in O,-0.82 kcal/mol
CN(C)CCOC(c1ccccc1)c1ccccc1,"solvation free energy, 298 K",in O,-9.34 kcal/mol
C=C1CCC2(C(C)C)CC12 (stereo not given),"solvation free energy, 298 K",in O,0.49 kcal/mol
CCCCCN,"solvation free energy, 298 K",in CCCCCCC,-4.79 kcal/mol
same,"solvation free energy, 298 K",in O,-4.13 kcal/mol
CN(C)CCC=C1c2ccccc2CCc2ccccc21,"solvation free energy, 298 K",in O,-7.43 kcal/mol
CC1(C)C2CC3C(C2)C31C,"solvation free energy, 298 K",in O,0.87 kcal/mol
COc1ccc(C(=O)N(C)C)cc1,"solvation free energy, 298 K",in O,-11 kcal/mol
CCCCCCCCCCCCCC(=O)OC,"solvation free energy, 298 K",in O,-1.14 kcal/mol
CC(C)=O,"solvation free energy, 298 K",in Brc1cccc2ccccc12,-3.32 kcal/mol
same,"solvation free energy, 298 K",in C1CCOC1,-3.89 kcal/mol
same,"solvation free energy, 298 K",in C1COCCO1,-3.87 kcal/mol
same,"solvation free energy, 298 K",in CC#N,-4.32 kcal/mol
same,"solvation free energy, 298 K",in CC(=O)N(C)C,-3.95 kcal/mol
same,"solvation free energy, 298 K",in CC(=O)OCc1ccccc1,-3.69 kcal/mol
same,"solvation free energy, 298 K",in CC(C)CC(C)(C)C,-2.44 kcal/mol
same,"solvation free energy, 298 K",in CC(C)CCCC(C)CCCC(C)CCCCC(C)CCCC(C)CCCC(C)C,-2.37 kcal/mol
same,"solvation free energy, 298 K",in CC(C)O,-3.36 kcal/mol
same,"solvation free energy, 298 K",in CC=O,-4.07 kcal/mol
same,"solvation free energy, 298 K",in CCC(C)=O,-3.98 kcal/mol
same,"solvation free energy, 298 K",in CCCCCC,-2.68 kcal/mol
same,"solvation free energy, 298 K",in CCCCCCC,-2.57 kcal/mol
same,"solvation free energy, 298 K",in CCCCCCCC,-2.53 kcal/mol
same,"solvation free energy, 298 K",in CCCCCCCCC=CCCCCCCCC(=O)OCC(COC(=O)CCCCCCCC=CCCCCCCCC)OC(=O)CCCCCCCC=CCCCCCCCC,-3.07 kcal/mol
same,"solvation free energy, 298 K",in CCCCCCCCCC,-2.46 kcal/mol
same,"solvation free energy, 298 K",in CCCCCCCCCCCCCCCC,-2.3 kcal/mol
same,"solvation free energy, 298 K",in CCCCCCCCO,-3.14 kcal/mol
same,"solvation free energy, 298 K",in CCCCCO,-3.4 kcal/mol
same,"solvation free energy, 298 K",in CCCCCl,-3.62 kcal/mol
same,"solvation free energy, 298 K",in CCCCN(C=O)CCCC,-3.55 kcal/mol
same,"solvation free energy, 298 K",in CCCCO,-3.51 kcal/mol
same,"solvation free energy, 298 K",in CCCCOCCCC,-3.04 kcal/mol
same,"solvation free energy, 298 K",in CCN1CCCC1=O,-3.77 kcal/mol
same,"solvation free energy, 298 K",in CCN(CC)C(C)=O,-3.82 kcal/mol
same,"solvation free energy, 298 K",in CCNC(C)=O,-3.56 kcal/mol
same,"solvation free energy, 298 K",in CCNC=O,-3.72 kcal/mol
same,"solvation free energy, 298 K",in CCO,-3.78 kcal/mol
same,"solvation free energy, 298 K",in CCOC(=O)c1ccccc1C(=O)OCC,-3.53 kcal/mol
same,"solvation free energy, 298 K",in CCOC(C)=O,-3.9 kcal/mol
same,"solvation free energy, 298 K",in CCOCC,-3.51 kcal/mol
same,"solvation free energy, 298 K",in CCOP(=O)(OCC)OCC,-3.64 kcal/mol
same,"solvation free energy, 298 K",in CI,-3.91 kcal/mol
same,"solvation free energy, 298 K",in CN1CCCC1=O,-3.94 kcal/mol
same,"solvation free energy, 298 K",in CN1CCCCC1=O,-3.82 kcal/mol
same,"solvation free energy, 298 K",in CN1CCN(C)C1=O,-3.61 kcal/mol
same,"solvation free energy, 298 K",in CN(C)C=O,-4.02 kcal/mol
same,"solvation free energy, 298 K",in CNC(C)=O,-3.67 kcal/mol
same,"solvation free energy, 298 K",in CNC=O,-3.82 kcal/mol
same,"solvation free energy, 298 K",in CO,-4.05 kcal/mol
same,"solvation free energy, 298 K",in COC(C)=O,-4.02 kcal/mol
same,"solvation free energy, 298 K",in COP(=O)(OC)OC,-3.97 kcal/mol
same,"solvation free energy, 298 K",in CS(C)=O,-3.67 kcal/mol
same,"solvation free energy, 298 K",in Cc1ccc(C)cc1,-3.39 kcal/mol
same,"solvation free energy, 298 K",in Cc1cccc(C)c1,-3.4 kcal/mol
same,"solvation free energy, 298 K",in Cc1ccccc1C,-3.36 kcal/mol
same,"solvation free energy, 298 K",in ClC(Cl)(Cl)Cl,-3.25 kcal/mol
same,"solvation free energy, 298 K",in ClC(Cl)Cl,-4.67 kcal/mol
same,"solvation free energy, 298 K",in ClCCCl,-4.27 kcal/mol
same,"solvation free energy, 298 K",in ClCCl,-4.62 kcal/mol
same,"solvation free energy, 298 K",in Clc1ccccc1,-3.63 kcal/mol
same,"solvation free energy, 298 K",in N#CCCOCCC#N,-3.86 kcal/mol
same,"solvation free energy, 298 K",in NC=O,-3.77 kcal/mol
same,"solvation free energy, 298 K",in O,-3.84 kcal/mol
same,"solvation free energy, 298 K",in O=C1CCCCC1,-3.8 kcal/mol
same,"solvation free energy, 298 K",in O=CN1CCOCC1,-3.66 kcal/mol
same,"solvation free energy, 298 K",in OCCOCCO,-3.32 kcal/mol
same,"solvation free energy, 298 K",in S=C=S,-3.39 kcal/mol
same,"solvation free energy, 298 K",in [2H]O[2H],-3.82 kcal/mol
same,"solvation free energy, 298 K",in c1ccc2ncccc2c1,-3.62 kcal/mol
same,"solvation free energy, 298 K",in c1ccccc1,-3.79 kcal/mol
